{"source": "patent US8299048B2", "about": "“Hexahydrocyclopentyl[f]indazole sulfonamides and derivatives thereof as selective glucocorticoid receptor modulators” (Merck Sharp & Dohme Corp., priority 2008, dated 2012)"}
{"biological_target": "T1, glucocorticoid receptor (Homo sapiens, UniProt P04150)", "T1 construct": "endogenous in cells", "T1 sequence (P04150 1-777)": "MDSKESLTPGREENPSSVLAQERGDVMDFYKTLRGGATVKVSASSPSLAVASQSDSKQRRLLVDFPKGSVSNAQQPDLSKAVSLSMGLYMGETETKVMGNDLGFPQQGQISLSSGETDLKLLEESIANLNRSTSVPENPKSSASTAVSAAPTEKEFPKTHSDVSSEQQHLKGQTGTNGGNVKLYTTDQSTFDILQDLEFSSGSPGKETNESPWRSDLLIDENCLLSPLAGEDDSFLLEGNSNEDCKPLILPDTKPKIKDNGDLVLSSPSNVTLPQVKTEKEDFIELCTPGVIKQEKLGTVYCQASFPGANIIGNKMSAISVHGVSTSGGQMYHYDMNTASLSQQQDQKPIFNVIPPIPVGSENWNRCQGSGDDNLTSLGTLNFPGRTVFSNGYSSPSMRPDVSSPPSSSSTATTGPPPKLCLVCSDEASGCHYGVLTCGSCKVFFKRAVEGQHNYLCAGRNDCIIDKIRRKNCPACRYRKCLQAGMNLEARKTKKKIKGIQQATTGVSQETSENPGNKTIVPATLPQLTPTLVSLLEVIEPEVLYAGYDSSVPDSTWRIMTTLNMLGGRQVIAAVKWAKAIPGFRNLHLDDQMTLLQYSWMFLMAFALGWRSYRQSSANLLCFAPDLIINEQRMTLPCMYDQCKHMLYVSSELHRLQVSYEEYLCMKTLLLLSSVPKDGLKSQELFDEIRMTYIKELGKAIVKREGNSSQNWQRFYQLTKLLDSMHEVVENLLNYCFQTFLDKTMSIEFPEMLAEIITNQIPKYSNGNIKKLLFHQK", "assay": "Ligand binding assay (GR BIND)", "how_it_was_run": "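Displacement of tritiated dexamethasone (6 nM trace solution) from receptor in cell supernatant was measured after overnight incubation at 4 °C in molybdate-containing TEGM, pH 7.2, 2% ethanol. Hydroxylapatite pulled down the receptor–ligand complex for filter washing and scintillation counting, with dexamethasone as reference.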", "units": {"Ki": "nM"}}
{"smiles": "C[C@]12Cc3cnn(-c4ccc(F)cc4)c3C=C1CC[C@@H]2CN(CC1CC1)S(=O)(=O)/C=C/c1ccccc1", "note": "[Example 13, (E)-N-(cyclopropylmethyl)-N-{[(4αR,5S)-1-(4-fluorophenyl)-4α-methyl-1,4,4α,5,6,7-hexahydrocyclopenta[f]indazol-5-yl]methyl}-2-phenylethylenesulfonamide]", "Ki": 0.6}
{"smiles": "CNC(=O)Nc1ccc(S(=O)(=O)N(CC2CC2)C[C@H]2CCC3=Cc4c(cnn4-c4ccc(F)cc4)C[C@@]32C)c(Cl)c1", "note": "[Example 14, 2-chloro-N-(cyclopropylmethyl)-N-{[(4αR,5S)-1-(4-fluorophenyl)-4α-methyl-1,4,4α,5,6,7-hexahydrocyclopenta[f]indazol-5-yl]methyl}-4-{[(methylamino)carbonyl]amino}-benzenesulfonamide]", "Ki": 1.6}
{"smiles": "C[C@]12Cc3cnn(-c4ccc(F)cc4)c3C=C1CC[C@@H]2CN(CC1CC1)S(=O)(=O)c1ccc(F)c(Cl)c1", "note": "[Example 15, 3-chloro-N-(cyclopropylmethyl)-4-fluoro-N-{[(4αR,5S)-1-(4-fluorophenyl)-4α-methyl-1,4,4α,5,6,7-hexahydrocyclopenta[f]indazol-5-yl]methyl}benzenesulfonamide]", "Ki": 1.8}
{"smiles": "C[C@]12Cc3cnn(-c4ccc(F)cc4)c3C=C1CC[C@@H]2CN(CCC#N)S(=O)(=O)c1ccccc1F", "note": "[Example 16, N-(2-cyanoethyl)-2-fluoro-N-{[(4αR,5S)-1-(4-fluorophenyl)-4α-methyl-1,4,4α,5,6,7-hexahydrocyclopenta[f]indazol-5-yl]methyl}benzenesulfonamide]", "Ki": 3}
{"smiles": "C[C@]12Cc3cnn(-c4ccc(F)cc4)c3C=C1CC[C@@H]2CN(CCO)S(=O)(=O)c1ccccc1F", "note": "[Example 17, 2-fluoro-N-{[(4αR,5S)-1-(4-fluorophenyl)-4α-methyl-1,4,4α,5,6,7-hexahydrocyclopenta[f]indazol-5-yl]methyl}-N-(2-hydroxyethyl)benzenesulfonamide]", "Ki": 2.1}
{"smiles": "COC(=O)c1ccccc1S(=O)(=O)N(CC1CC1)C[C@H]1CCC2=Cc3c(cnn3-c3ccc(F)cc3)C[C@@]21C", "note": "[Example 18, methyl 2-[((cyclopropylmethyl){[(4αR,5S)-1-(4-fluorophenyl)-4α-methyl-1,4,4α,5,6,7-hexahydrocyclopenta[f]indazol-5 yl]methyl}amino)sulfonyl]benzoate]", "Ki": 0.8}
{"smiles": "C[C@]12Cc3cnn(-c4ccc(F)cc4)c3C=C1CC[C@@H]2CN(CCO)S(=O)(=O)c1ccc(F)c(Cl)c1", "note": "[Example 19, 3-chloro-4-fluoro-N-{[(4αR,5S)-1-(4-fluorophenyl)-4α-methyl-1,4,4α,5,6,7-hexahydrocyclopenta[f]indazol-5-yl]methyl}-N-(2-hydroxyethyl)benzenesulfonamide]", "Ki": 4}
{"smiles": "C[C@]12Cc3cnn(-c4ccc(F)cc4)c3C=C1CC[C@@H]2CN(CC#N)S(=O)(=O)c1ccc(F)c(Cl)c1", "note": "[Example 20, 3-chloro-N-(cyanomethyl)-4-fluoro-N-{[(4αR,5S)-1-(4-fluorophenyl)-4α-methyl-1,4,4α,5,6,7-hexahydrocyclopenta[f]indazol-5-yl]methyl}benzenesulfonamide]", "Ki": 2.2}
{"smiles": "C[C@]12Cc3cnn(-c4ccc(F)cc4)c3C=C1CC[C@@H]2CN(CC1CC1)S(=O)(=O)Cc1ccccc1", "note": "[Example 21, N-(cyclopropylmethyl)-N-{[(4αR,5S)-1-(4-fluorophenyl)-4α-methyl-1,4,4α,5,6,7-hexahydrocyclopenta[f]indazol-5-yl]methyl}-1-phenylmethanesulfonamide]", "Ki": 3}
{"smiles": "Cc1oncc1S(=O)(=O)N(CC#N)C[C@H]1CCC2=Cc3c(cnn3-c3ccc(F)cc3)C[C@@]21C", "note": "[Example 23, N-(cyanomethyl)-N-{[(4αR,5S)-1-(4-fluorophenyl)-4α-methyl-1,4,4α,5,6,7-hexahydrocyclopenta[f]indazol-5-yl]methyl}-5-methylisoxazole-4-sulfonamide]", "Ki": 4.9}
{"smiles": "C[C@]12Cc3cnn(-c4ccc(F)cc4)c3C=C1CC[C@@H]2CN(CC#N)S(=O)(=O)c1cc(Cl)c(Cl)s1", "note": "[Example 24, 4,5-dichloro-N-(cyanomethyl)-N-{[(4αR,5S)-1-(4-fluorophenyl)-4α-methyl-1,4,4α,5,6,7-hexahydrocyclopenta[f]indazol-5-yl]methyl}thiophene-2-sulfonamide]", "Ki": 5.3}
{"smiles": "C[C@]12Cc3cnn(-c4ccc(F)cc4)c3C=C1CC[C@@H]2CN(CC#N)S(=O)(=O)c1ccc(F)c(F)c1", "note": "[Example 25, N-(cyanomethyl)-3,4-difluoro-N-{[(4αR,5S)-1-(4-fluorophenyl)-4α-methyl-1,4,4α,5,6,7-hexahydrocyclopenta[f]indazol-5-yl]methyl}benzenesulfonamide]", "Ki": 2.5}
{"smiles": "C[C@]12Cc3cnn(-c4ccc(F)cc4)c3C=C1CC[C@@H]2CN(CC#N)S(=O)(=O)c1cccc(Cl)c1Cl", "note": "[Example 26, 2,3-dichloro-N-(cyanomethyl)-N-{[(4αR,5S)-1-(4-fluorophenyl)-4α-methyl-1,4,4α,5,6,7-hexahydrocyclopenta[f]indazol-5-yl]methyl}benzenesulfonamide]", "Ki": 9.7}
{"smiles": "C[C@]12Cc3cnn(-c4ccc(F)cc4)c3C=C1CC[C@@H]2CN(CC#N)S(=O)(=O)c1ccc(Cl)c(C(F)(F)F)c1", "note": "[Example 27, 4-chloro-N-(cyanomethyl)-N-{[(4αR,5S)-1-(4-fluorophenyl)-4α-methyl-1,4,4α,5,6,7-hexahydrocyclopenta[f]indazol-5-yl]methyl}-3-(trifluoromethyl)benzenesulfonamide]", "Ki": 8.8}
{"smiles": "C[C@]12Cc3cnn(-c4ccc(F)cc4)c3C=C1CC[C@@H]2CN(CC#N)S(=O)(=O)c1ccc(C#N)cc1", "note": "[Example 28, 4-cyano-N-(cyanomethyl)-N-{[(4αR,5S)-1-(4-fluorophenyl)-4α-methyl-1,4,4α,5,6,7-hexahydrocyclopenta[f]indazol-5-yl]methyl}benzenesulfonamide]", "Ki": 2.3}
{"smiles": "Cc1cc(S(=O)(=O)N(CC#N)C[C@H]2CCC3=Cc4c(cnn4-c4ccc(F)cc4)C[C@@]32C)c(C)cc1Cl", "note": "[Example 29, 4-chloro-N-(cyanomethyl)-N-{[(4αR,5S)-1-(4-fluorophenyl)-4α-methyl-1,4,4α,5,6,7-hexahydrocyclopenta[f]indazol-5-yl]methyl}-2,5-dimethylbenzenesulfonamide]", "Ki": 8.4}
{"smiles": "C[C@]12Cc3cnn(-c4ccc(F)cc4)c3C=C1CC[C@@H]2CN(CC#N)S(=O)(=O)Cc1cccc(C(F)(F)F)c1", "note": "[Example 30, N-(cyanomethyl)-N-{[(4αR,5S)-1-(4-fluorophenyl}-4α-methyl-1,4,4α,5,6,7-hexahydrocyclopenta[f]indazol-5-yl]methyl}-1-[3-(trifluoromethyl)phenyl]methanesulfonamide]", "Ki": 7.6}
{"smiles": "Cc1ccc(S(=O)(=O)N(CC#N)C[C@H]2CCC3=Cc4c(cnn4-c4ccc(F)cc4)C[C@@]32C)s1", "note": "[Example 31, N-(cyanomethyl)-N-{[(4αR,5S)-1-(4-fluorophenyl}-4α-methyl-1,4,4α,5,6,7-hexahydrocyclopenta[f]indazol-5-yl]methyl}-5-methylthiophene-2-sulfonamide]", "Ki": 6.1}
{"smiles": "Cn1cc(S(=O)(=O)N(CC#N)C[C@H]2CCC3=Cc4c(cnn4-c4ccc(F)cc4)C[C@@]32C)c(C(F)(F)F)n1", "note": "[Example 32, N-(cyanomethyl)-N-{[(4αR,5S)-1-(4-fluorophenyl}-4α-methyl-1,4,4α,5,6,7-hexahydrocyclopenta[f]indazol-5-yl]methyl}-1-methyl-3-(trifluoromethyl)-1H-pyrazole-4-sulfonamide]", "Ki": 3.9}
{"smiles": "Cc1cc(S(=O)(=O)N(CC#N)C[C@H]2CCC3=Cc4c(cnn4-c4ccc(F)cc4)C[C@@]32C)c(C)o1", "note": "[Example 33, (4αR,5S)-5-({(cyanomethyl)[(2,5-dimethyl-3-furyl)sulfonyl]amino}methyl)-1-(4-fluorophenyl)-4α-methyl-1,4,4α,5,6,7-hexahydrocyclopenta[f]indazol-2-ium]", "Ki": 8.8}
{"smiles": "COC(=O)c1sccc1S(=O)(=O)N(CC#N)C[C@H]1CCC2=Cc3c(cnn3-c3ccc(F)cc3)C[C@@]21C", "note": "[Example 34, methyl 3-[((cyanomethyl){[(4αR,5S)-1-(4-fluorophenyl)-4α-methyl-1,4,4α,5,6,7-hexahydrocyclopenta[f]indazol-5-yl]methyl}amino)sulfonyl]thiophene-2-carboxylate]", "Ki": 1.7}
{"smiles": "Cn1nc(C(F)(F)F)cc1-c1ccc(S(=O)(=O)N(CC#N)C[C@H]2CCC3=Cc4c(cnn4-c4ccc(F)cc4)C[C@@]32C)s1", "note": "[Example 35]", "Ki": 5.1}
{"smiles": "C[C@]12Cc3cnn(-c4ccc(F)cc4)c3C=C1CC[C@@H]2CN(CC#N)S(=O)(=O)c1cccc(C#N)c1", "note": "[Example 36, 3-cyano-N-(cyanomethyl)-N-{[(4αR,5S)-1-(4-fluorophenyl)-4α-methyl-1,4,4α,5,6,7-hexahydrocyclopenta[f]indazol-5-yl]methyl}benzenesulfonamide]", "Ki": 2.5}
